Data as given in US20220087969A1, “METHOD FOR TREATING ASTHMA” (Olatec Therapeutics LLC, priority 2019, published 2022).

Assays:
[1] = tested on: OVA-induced allergic airway inflammation; assay: Airway resistance in response to MCh, OVA model, oral dapansutrile in food; assay type: in vivo, mice; details: 100 mg/mL MCh
Method: The experimental protocols of the mouse model were the same as those described in Example 1, except dapansutrile was administered orally by food. The already-sensitized mice were fed ad libidum with food pellets containing 7.5 g/kg dapansutrile starting on day 22 for one week; the first aerosol challenge was on day 26. Mice typically consume about 4 g of food per day, resulting in an approximate daily dose of 0 mg/kg/day for control groups and 1,000 mg/kg/day for the treatment groups. […] OVA-sensitized, OVA-challenged asthmatic controls (asthmatic) were fed with control food pellets without dapansutrile. […] Baseline airway resistance of healthy animals was 2.58 cm H2O·s/mL at 100 mg/mL MCh.

[2] = tested on: OVA-induced allergic airway inflammation; assay: Goblet cells covering airway mucosa (PAS sections, stereology), OVA model, i.p. dapansutrile; assay type: in vivo, C57BL/6j mice; details: treated mice, 60 mg/kg i.p.; asthmatic 22.74%; p<0.01
Method: (§1) C57BL/6j mice were sensitized to OVA (ovalbumin) by three intraperitoneal (i.p.) injections of 10 μg OVA adsorbed to 150 mg aluminum hydroxide on days 1, 14, and 21. This sensitization results in an adoptive immune response against OVA with OVA-specific TH2 cells and the production of OVA-specific antibodies of the subclasses IgE and […]. To induce acute allergic airway inflammation, mice were exposed three times to an OVA aerosol (1% w/v in PBS) on days 26, 27, and 28. Healthy control animals (healthy group) were sham sensitized to PBS and subsequently challenged with PBS aerosol. […] The following readouts were measured according to Lunding, 2015b. • General infiltration of inflammatory cells into the broncheoalveolar lumen • Determination of the specific infiltration of eosinophils, neutrophils and lymphocytes by histologic differentiation of the bronchoalveolar lavage (BAL) cells. • Goblet cell hyperplasia by CAST system (Computer Assisted Stereological Toolbox), including making microscopic pictures of the airways. • Airway resistance in response to methacholine to determine the airway hyperresponsiveness. Specifically, inflammatory cell subpopulations (eosinophils, macrophages, neutrophils, lymphocytes) infiltrating the bronchoalveolar lumen were quantified using cyto-spinned and quick-diff-stained cells from bronchoalveolar lavage fluids (BALF). […]

[3] = tested on: OVA-induced allergic airway inflammation; assay: Inflammatory cell infiltrate in lung tissue (HE sections, CAST), OVA model, i.p. dapansutrile; assay type: in vivo, C57BL/6j mice; details: 60 mg/kg i.p.; treated vs asthmatic mice; p<0.01
Method: as §1

[4] = tested on: OVA-induced allergic airway inflammation; assay: Inflammatory cell infiltrate in lung tissue, OVA model, oral dapansutrile in food; assay type: in vivo; details: 7.5 g/kg in food, treated vs asthmatic mice, p<0.05
Method: The experimental protocols of the mouse model were the same as those described in Example 1, except dapansutrile was administered orally by food. The already-sensitized mice were fed ad libidum with food pellets containing 7.5 g/kg dapansutrile starting on day 22 for one week; the first aerosol challenge was on day 26. Mice typically consume about 4 g of food per day, resulting in an approximate daily dose of 0 mg/kg/day for control groups and 1,000 mg/kg/day for the treatment groups. […] OVA-sensitized, OVA-challenged asthmatic controls (asthmatic) were fed with control food pellets without dapansutrile. […] The label on the y-axis reads “volume of inflammatory cell infiltrate per basal membrane area (μm^3/μm^2)”. The inflammatory cells were counted within a specific distance around the airways using a microscope with the computer assisted stereological toolbox (CAST) system. These counts were set in ratio to the basal membrane to normalize within each microscopic slide to avoid slide-dependent differences.

Structure (SMILES): CS(=O)(=O)CCC#N [dapansutrile, 3-methanesulfonylpropionitrile]
- reduction of airway resistance in response to MCh ([1]; oral, 7.5 g/kg in food, vs sham-treated asthmatic controls, p<0.01): approximately 60%
- airway resistance in response to MCh ([1]; treated mice, oral 7.5 g/kg in food, asthmatic 4.57, healthy 2.58): 3.38 cm H2O·s/mL
- area of epithelial basal membrane covered by goblet cells [2]: 17.67%
- number of inflammatory cells in lung tissue (volume of inflammatory cell infiltrate per basal membrane area) [3]: significantly lower
- number of inflammatory cells in lung tissue (volume of inflammatory cell infiltrate per basal membrane area) [4]: significantly lower
